Measured values reported in patent US20240271096A1, “EFFICIENT DIFFERENTIATION OF SECOND HEART FIELD CARDIAC PROGENITOR CELLS AND RIGHT VENTRICLE CARDIOMYOCYTES FROM HUMAN PLURIPOTENT STEM CELLS” (Wisconsin Alumni Research Foundation, priority 2023, published 2024).

System: reporterless hiPSC line
Assay: Immunostaining of marker proteins in hiPSC-derived cardiac progenitor cells and cardiomyocytes
Format: cell-based, human
Description: For LV-cardiomyocyte differentiation, cardiac differentiation was performed according to the protocol published by (Lian et al., 2012, Proc Natl Acad Sci USA 109:[…]-57). Cells were dissociated with StemPro Accutase Cell Dissociation Reagent at 37° C. for 5 minutes. HESCs were seeded on Matrigel-coated 24-well plates (Corning) in StemFlex Medium supplemented with 10 μmol/[…] were seeded on iMatrix-511-coated 12-well plates (Corning) in StemFit A[…] supplemented with 10 μmol/[…] at seeding densities of 1×10^5 cells/cm^2 for hESCs and 1.25-2.5×10^4 cells/cm^2 for hiPSCs. Cells were cultured for 4 days until the start of differentiation (day 0). On day 0, the medium was changed to RPMI 1640 Medium (Thermo Fisher Scientific) supplemented with B-27 Supplement minus insulin (Thermo Fisher Scientific) (RPMI/B27-insulin) or B-27 Supplement with insulin (Thermo Fisher Scientific), and 12 μmol/L CHIR 99021 (SelleckChem, Houston, TX, United States), and the cells incubated in this medium for 24 h (day 1). On day 1, the medium was changed to RPMI/B27-insulin. […] On day 3, the medium was changed to RPMI/B27-insulin supplemented with 5 μmol/L IWP2 (SelleckChem) and on day 5, the medium was changed to 1 ml RPMI/B27-insulin. From day 7, the cells were cultured with RPMI/B27-insulin, and the cells were fed every other day. On day 12, the cells were washed with PBS (Thermo Fisher Scientific) and cultured with DMEM or RPMI, no glucose supplemented with 8 mmol/L L-(+)-Lactic acid (Merck) (Tohyama et al., 2013 Cell Stem Cell, 12:127-37). The medium was changed every other day until day 17. After day 17, the cells were cultured with RPMI/B27 and fed every 2 to 3 days. For long-term culture, the cells were dissociated with TrypLETM Select Enzyme (10×) (Thermo Fisher Scientific) at 37° C. for 15-20 minutes and seeded on Matrigel- or iMatrix-511-coated plates. […] For FIG. 15A and FIG. 15B, dorsomorphin (DM) or 3 μg/L insulin were added on day 0 (for 24 hours), 1, 3, or 5 (for 48 hours). Cells were plated on iMatrix-511-coated plates and fixed in 4% paraformaldehyde (Nacalai, Kyoto, Japan) for 15 minutes. Cells were permeabilized with 0.1% Triton X-100 (Sigma-Aldrich, St. Louis, MO, United States)/PBS and blocked with 10% goat serum (Sigma-Aldrich). Primary and secondary antibodies were diluted in 0.1% Triton X-100/PBS with 5% goat serum and stained with Hoechst 33342 (Thermo Fisher Scientific) at 1 μg/mL, mouse anti-cardiac troponin T monoclonal IgG1 (GTX28295, GeneTex, Irvine, CA, United States) diluted at 1:16000, mouse anti-α-actinin monoclonal IgG1 (A7811, Sigma-Aldrich) diluted at 1:1000, rabbit anti-MLC2v monoclonal IgG (ab92721, Abcam, Cambridge, United Kingdom) diluted at 1:500, rabbit anti-CXCR4 monoclonal IgG (ab181020, Abcam) diluted at 1:2000, rabbit anti-NKX2-5 monoclonal IgG (Cat #. […], Cell Signaling Technology, Danvers, MA, United States) diluted at 1:2500, mouse anti-Nav1.5 (Car #. ASC-013, Alomone Labs) diluted at 1:1000, rabbit anti-connexin 43 (Cat #. 83649, Cell Signaling Technology) diluted at 1:1000, and mouse anti-TBX5 monoclonal IgG2a (Cat #. sc-515536, Santa Cruz Biotechnology, Dallas, TX, United States) diluted at 1:500. These cells were then incubated with a secondary antibody, goat anti-mouse or rabbit polyclonal IgG conjugated with iFluor 488 or 555 (AAT Bioquest, Sunnyvale, CA, United States) diluted at 1:1000, for 1 hour at room temperature. The cells were then observed with IX71 (Olympus, Tokyo, Japan) or EVOS FL Auto (Thermo Fisher Scientific) and images processed with ImageJ ([…] al., 2012, Nat Methods, 9:671-5).

## insulin
Added on day 1 for 48 hours
  RV cardiomyocytes differentiation: induced optimal RV cardiomyocytes differentiation
Insulin day 0 to day 1, day 6
  CXCR4 immunostaining: upregulation
Insulin day 0 to day 1, day 10
  TBX5 expression (immunostaining): greatly reduced
  expression of pan-cardiomyocyte markers NKX2-5 and cardiac Troponin T (cTnT): expressed
Insulin on day 1 for 48 hours (D1-3)
  immunostaining of TBX5: low
